Earlier results as cited in patent publication US20260224647A1, “Microbial compositions for treating joint inflammation” (Katholieke Universiteit Leuven, priority 2023, published 2026).

System: rheumatoid arthritis
Details: twice daily administration

Lactobacillus rhamnosus GG
Activity of rheumatoid arthritis: no statistically significant differences
